# Test results taken from article PMC5374206, “Anti-bacterial and Anti-biofilm Evaluation of Thiazolopyrimidinone Derivatives Targeting the Histidine Kinase YycG Protein of Staphylococcus epidermidis” (Frontiers in Microbiology, 2017).
# Key:
# [1] = Erythrocyte hemolysis assay; assay type: cell-based; conditions: human, erythrocytes (5% suspension), 37°C; for hemolysis at 1 h, 200 µM: at 200 μM; for hemolysis at 1 h: at MIC (against S epidermidis ATCC 35984)
# Experimental: Hemolytic activities of the derivatives were measured on healthy human erythrocytes. A pure suspension of erythrocytes was obtained by washing a blood sample with sterile 0.9% NaCl saline solution. Erythrocytes were resuspended in normal saline to give a 5% solution, then treated with MIC, 4 × MIC or 200 μM of the derivatives for 1 h at 37°C in 96-well microtiter plates. After the incubation and centrifugation at 1,000 g for 10 min, supernatants were transferred to another sterile plate and the absorbance at 570 nm was measured on a spectrophotometric microplate reader. A positive control (100% hemolysis) and a negative control (0% hemolysis) were achieved by incubating with 1% Triton-X 100 and 0.1% DMSO, respectively. Each assay was performed in triplicate and repeated three times.
# Cytotoxicity MTT assay = assay type: cell-based; conditions: African green monkey, Vero cells, highest concentration tested 200 μM
# Experimental: A Cell Proliferation Kit I (MTT; Roche, Indianapolis, USA) was used to detect the cytotoxicity of the derivatives against Vero cells. Vero cells were added to 96-well microtiter plates at a concentration of 5 × 10^4 cells/well in 100 μL of culture medium. After 24 h, culture medium was replaced by 100 μL serial dilutions of the derivatives (0.78–100 μM) and the cells were incubated for 4 h in an atmosphere of 5% CO2, then 10 μL of the MTT stock solution was added to each well and the plate returned to the 37°C incubator for 4 h. Subsequent to the incubation, the purple formazan salts were dissolved in DMSO, and the absorbance of each well was measured at wavelengths of 595 nm (test) and 655 nm (reference). Cells treated with the solvent (0.1% DMSO) were used as a blank control. The concentration of the derivatives that produced a 50% cytotoxicity effect on Vero cells (CC50) was calculated using Origin v8.0 software (Origin Lab, Northampton, USA).
# E. coli ATCC 25922 = assay: MIC tube-dilution assay; assay type: cell-based, Escherichia coli; conditions: E. coli ATCC29522 (head), highest concentration used 200 μM
# Experimental: (§1) The MIC assays of the derivatives of compound 5 against S. epidermidis, S. aureus, MRSA and E. coli were performed by using the methods described previously by Wiegand et al. ([2008]). In brief, two-fold serial dilutions of the derivatives were prepared in tubes containing 4 mL MHB medium, yielding final concentrations from 200 to 0.78 μM. Bacterial cultures were grown overnight and adjusted so that the bacterial suspension turbidity was equivalent to a 0.5 McFarland standard (~1 × 10^8 CFU/mL) and further diluted to 1:200 into MHB medium. The contents in the tubes were mixed thoroughly and incubated at 37°C with shaking at 220 rpm for 16–20 h. The MIC endpoint was defined as the lowest concentration at which there was no visible growth in the tubes. The MBC values were assessed by plating 100 μL samples from each negative (no visible bacterial growth) culture tube from the MIC assays onto blank MHB agar plates. After incubation at 37°C for 24 h, the bacterial colonies on the plates were counted. The MBC was the concentration at which a 99.9% reduction of the original inoculum was observed (Pridmore et al., [2011]). In this assay, all the experiments were performed three times.
# [2] = test system: S. epidermidis ATCC 35984; assay: MIC and MBC tube-dilution assay; assay type: cell-based; conditions: Staphylococcus epidermidis; for MBC: ATCC35984, 99.9% reduction of inoculum; for MIC: ATCC35984, MHB, 16–20 h
# Experimental: as §1
# S. aureus ATCC 49230 = assay: MIC tube-dilution assay; assay type: cell-based; conditions: Staphylococcus aureus, ATCC49230
# Experimental: as §1
# [3] = test system: S. epidermidis ATCC 12228; assay: MIC tube-dilution assay; assay type: cell-based; conditions: Staphylococcus epidermidis, ATCC12228
# Experimental: as §1
# [4] = test system: S. epidermidis ATCC 35984 mature biofilms; set-up: method as in Liu et al., 2014; conditions: vancomycin 128 μg/mL; ref Liu et al., 2014; cited from earlier work
# [5] = test system: S. epidermidis ATCC 35984; assay: Time-kill assay against fast-growing S. epidermidis; assay type: cell-based, Staphylococcus epidermidis; conditions: 4 × MIC
# Experimental: Suspensions of S. epidermidis (1 × 10^7 CFU/mL) were prepared and separately treated with the derivatives of compound 5 or vancomycin at concentrations of 4 × MIC in fresh MHB. Time-kill experiments were performed at 37°C with shaking at 220 rpm under aerobic conditions. Aliquots (1 mL) were removed from the culture medium at different time points (0, 1, 3, 5, 8, and 24 h), serially diluted and 100 μL of each of the dilutions plated out onto tryptic soy agar. After incubating at 37°C for 24 h, emergent bacterial colonies were counted, and the activity of the derivatives against fast-growing S. epidermidis cells was determined by plotting log10 colony counts (CFU/mL) against time. Bactericidal activity was defined as a 3-log10 decrease in CFU/mL. This assay was performed in triplicate and similar results were obtained.
# YycG′ protein = target: T1, YycG′ protein (Staphylococcus epidermidis, UniProt Q5HK19); assay: Inhibition of YycG′ autophosphorylation (Kinase-Glo Luminescent Kinase Assay); assay type: biochemical; conditions: 4 μM ATP; for inhibition of the enzymatic activity of YycG′ protein: 100 μM derivative, 2 μg YycG′ protein; for IC50: Kinase-Glo, 2 μg YycG′, read-out: IC50 (inhibition of autophosphorylation of recombinant YycG′)
# T1 construct: made in house; host or cells: E. coli BL21(DE3)
# T1 sequence (Q5HK19 384-602 limits assumed): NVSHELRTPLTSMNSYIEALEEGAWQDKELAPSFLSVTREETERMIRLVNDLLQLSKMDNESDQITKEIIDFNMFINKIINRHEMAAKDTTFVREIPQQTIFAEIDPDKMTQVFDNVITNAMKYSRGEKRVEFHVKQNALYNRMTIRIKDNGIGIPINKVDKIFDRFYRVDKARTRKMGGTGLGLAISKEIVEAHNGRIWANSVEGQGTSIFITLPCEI
# Experimental: The construction of the recombinant plasmid pET28a-YycG′ (containing the HATPase_c and HisKA domains of YycG) has been previously described (Liu et al., [2014]). After being used to transform E. coli strain BL21(DE3), this recombinant plasmid was induced to express YycG′ protein by 0.4 mM isopropyl-1-thio-β-D-galactopyranoside at 21°C for 12 h. Then, the bacterial cells were disrupted by sonication and centrifuged, the supernatant was purified by Ni–NTA agarose (Qiagen, Los Angeles, CA, USA). The inhibitory activities of the compound 5 derivatives on the ATPase activity of the YycG′ protein were measured using the Kinase-Glo™ Luminescent Kinase Assay (Promega, Madison, WI, USA). Briefly, 2 μg purified YycG′ protein was pre-incubated with a series of dilutions of the derivatives in reaction buffer [40 mM Tris (pH 7.5), 20 mM MgCl2 and 0.1 mg/ml BSA] at room temperature for 30 min, 4 μM ATP was added and incubated for 30 min at room temperature, then Kinase-Glo™ Reagent was added to detect the remaining amount of ATP, as reflected by luminescence intensity (RLU). In parallel, YycG′ protein with no addition of the derivatives was used as the control and ATP only was used as a blank. The rate of inhibition of protein phosphorylation (Rp) by the derivatives was calculated by the following equation: Rp = RLU(YycG^′+derivative+ATP+Kinase−Glo™)−RLU(YycG^′+ATP+Kinase−Glo™)/RLU(ATP+Kinase−Glo™)−RLU(YycG^′+ATP+Kinase−Glo™) × 100 IC50 (the concentration resulting in 50% inhibition of YycG′ protein autophosphorylation) was obtained by using Origin v7.0 software (OriginLab, Northampton, USA).
# [6] = test system: S. epidermidis ATCC 35984 mature biofilms; assay: Cell viability in mature (24 h) biofilms by CLSM with Live/Dead staining; assay type: cell-based, Staphylococcus epidermidis; conditions: 4 × MIC, 16 h, 24 h mature biofilm; for PI fluorescence quantity (dead cells) / SYTO9 fluorescence quantity (viable cells): Image J
# Experimental: The effect of the derivatives on cell viability in mature biofilms (24 h old) was determined using the Live/Dead Bacterial Viability method (Live/Dead BacLight, Molecular Probes, USA). […] The mature biofilms were stained with SYTO 9 and propidium iodide at room temperature for 15 min, following gentle washing of the dishes with normal saline, and were observed under a Leica TCS SP5 CLSM with a 63 × 1.4-NA oil-immersion objective. Further, image analysis was performed using IMARIS 7.0.0 software (Bitplane). The fluorescence quantities of biofilm were determined using Image J software. This assay was performed in triplicate and similar results were obtained.
# [7] = Escherichia coli, ATCC 25922 / ATCC 29522
Compound,MIC (E. coli ATCC 25922; [7]) [µM],MIC [2] [µM],MIC (S. aureus ATCC 49230) [µM],MIC [3] [µM],MIC (E. coli ATCC 25922) [µM],inhibition of the enzymatic activity of YycG′ protein (YycG′ protein) [%],IC50 (YycG′ protein) [µM],"hemolysis at 1 h, 200 µM [1] [%]",hemolysis at 1 h [1] [%],CC50 at 4 h (Cytotoxicity MTT assay) [µM],MBC [2] [µM],reduction of living cells in mature biofilm [4] [%],time required to achieve a bactericidal effect ([5]; bactericidal = 3-log10 decrease in CFU/mL) [h],"reduction in CFU/mL ([5]; within/after 1 h, inoculum ~1 × 10^7 CFU/mL, MHB)",PI/Total (reduction of the proportion of viable cells in mature biofilms) [6] [%],PI fluorescence quantity (dead cells) [6],SYTO9 fluorescence quantity (viable cells) [6]
"CN[C@H](CC(C)C)C(=O)N[C@H]1C(=O)N[C@@H](CC(N)=O)C(=O)N[C@H]2C(=O)N[C@H]3C(=O)N[C@H](C(=O)N[C@H](C(=O)O)c4cc(O)cc(O)c4-c4cc3ccc4O)[C@H](O)c3ccc(c(Cl)c3)Oc3cc2cc(c3O[C@@H]2O[C@H](CO)[C@@H](O)[C@H](O)[C@H]2O[C@H]2C[C@](C)(N)[C@H](O)[C@H](C)O2)Oc2ccc(cc2Cl)[C@H]1O [vancomycin, reference compound]",–,–,–,–,–,–,–,–,–,–,–,11.4,> 5,~ 1 log,–,–,–
"O=C(O)c1cccc(-c2ccc(C=c3sc4n(c3=O)C(c3ccc(Cl)cc3)C=C(c3ccccc3)N=4)o2)c1 (centres unmarked) [H5-25, 3-{5-[5-(4-chloro-phenyl)-3-oxo-7-phenyl-5H-thiazolo [3,2-a]pyrimidin-2-ylidenemethyl]-furan-2-yl}-benzoic acid]",> 200,1.56,1.56,1.56,>200,51.42,80.2,0.39 ± 0.09,0.27 ± 0.01,> 200,50,–,–,–,43.80,47.687 ± 4.77,61.188 ± 5.49

# The next lines start with results.
MIC (E. coli ATCC 25922; [7]) [µM],MIC [2] [µM],MIC (S. aureus ATCC 49230) [µM],MIC [3] [µM],MIC (E. coli ATCC 25922) [µM],inhibition of the enzymatic activity of YycG′ protein (YycG′ protein) [%],IC50 (YycG′ protein) [µM],Compound,"hemolysis at 1 h, 200 µM [1] [%]",hemolysis at 1 h [1] [%],CC50 at 4 h (Cytotoxicity MTT assay) [µM],MBC [2] [µM],reduction of living cells in mature biofilm [4] [%],time required to achieve a bactericidal effect ([5]; bactericidal = 3-log10 decrease in CFU/mL) [h],"reduction in CFU/mL ([5]; within/after 1 h, inoculum ~1 × 10^7 CFU/mL, MHB)",PI/Total (reduction of the proportion of viable cells in mature biofilms) [6] [%],PI fluorescence quantity (dead cells) [6],SYTO9 fluorescence quantity (viable cells) [6]
> 200,6.25,6.25,6.25,–,–,–,"CCOC(=O)C1=C(c2ccccc2)N=c2s/c(=C\c3ccc(-c4cccc(C(=O)O)c4)o3)c(=O)n2C1c1ccc2c(c1)OCO2 (centres unmarked) [Compound 5, {5-benzo [1,3]dioxol-5-yl-2-[5-(3-carboxy-phenyl)-furan-2-ylmethylene]-3-oxo-7-phenyl-2,3-dihydro-5H-thiazolo [3,2-a]pyrimidine-6-carboxylic} acid ethyl ester]",0.51 ± 0.06,0.31 ± 0.16,> 200,25,–,–,–,–,–,–
> 200,1.56,1.56,1.56,>200,49.92,82.2,"COc1ccc(C2C=C(c3ccccc3)N=c3sc(=Cc4ccc(-c5cccc(C(=O)O)c5)o4)c(=O)n32)cc1 (centres unmarked) [H5-24, 3-{5-[5-(4-methoxy-phenyl)-3-oxo-7-phenyl-5H-thiazolo[3,2-a]pyrimidin-2-ylidenemethyl]-furan-2-yl}-benzoic acid]",0.32 ± 0.05,0.17 ± 0.11,> 200,50,–,–,–,77.5,43.242 ± 5.65,12.554 ± 4.23
> 200,1.56,1.56,1.56,>200,64.78,77.2,"CCOC(=O)C1=C(c2ccccc2)N=c2sc(=Cc3ccc(-c4cccc(C(=O)O)c4)o3)c(=O)n2C1c1ccc(Cl)cc1 (centres unmarked) [H5-23, 2-{5-(3-carboxy-phenyl)-furan-2-ylmethylene]-5-(4-chloro-phenyl)-3-oxo-7-phenyl-2,3-di-hydro-5H-thiazolo[3,2-a]pyrimidine-6-carboxylic acid ethyl ester]",0.27 ± 0.01,0.27 ± 0.35,> 200,25,–,–,–,85.7,61.928 ± 5.05,10.333 ± 4.39
